Patent publication US7026304B2, “2-alkylated-cyclodextrin derivatives: reversal agents for drug-induced neuromuscular block” (Akzo Nobel N.V., priority 2001, dated 2006)
Where two headings read alike, the source gives them in different places.

Legend:
[1] = test system: steady-state neuromuscular block induced by the muscle relaxant rocuronium bromide (Roc); test: Reversal of neuromuscular blockade in anaesthetized guinea pigs in vivo; set-up: species or system guinea pig
Description: Reversal of Neuromuscular Blockade in Anaesthetized Guinea Pigs in vivo Male Dunkin-Hartley guinea pigs (bodyweight: 600–900 g) were anaesthetized by i.p. administration of 10 mg/kg pentobarbitone and 1000 mg/kg urethane. After tracheotomy, the animals were artificially ventilated using a Harvard small animal ventilator. A catheter was placed into the carotid artery for continuous monitoring of arterial blood pressure and the taking of blood samples for blood gas analysis. Heart rate was derived from the blood pressure signal. The sciatic nerve was stimulated (rectangular pulses of 0.5 ms duration at 10 s (0.1 Hz) intervals at a supramaximal voltage, using a Grass S88 Stimulator) and the force of M. gastrocnemius contractions was measured using a Grass FT03 force-displacement transducer. Contractions, blood pressure and heart rate were recorded on a multichannel Grass 7D recorder. Catheters were placed in both jugular veins. One catheter was used for the continuous infusion of a neuromuscular blocking agent. […] The other catheter was used for administration of increasing doses of the reversal agent. During continuous infusion of the neuromuscular blocking agent, single doses of increasing concentration of reversal agent were given.

[2] = test system: steady-state neuromuscular block induced by the muscle relaxant rocuronium bromide (Roc); details: anaesthetized guinea pigs, as already described in WO 01/12202, cited from earlier work
[3] = anaesthetized guinea pigs, rocuronium bromide-induced steady-state block
[4] = anaesthetized guinea pigs, rocuronium bromide-induced steady-state block, dose at which % max reversal was reached
[5] = anaesthetized male Dunkin-Hartley guinea pigs, rocuronium bromide infusion to steady-state block of 85–90%, reversal agent i.v. in increasing doses

Compound | % max reversal [1, 3] | concentration at maximum reversal [1, 4] | ED50, dose producing 50% reversal of steady-state neuromuscular block [1, 5] | further results
O=C([O-])c1ccc(CO[C@H]2[C@H]3O[C@H]4[C@H](O)[C@@H](O)[C@@H](O[C@H]5[C@H](O)[C@@H](O)[C@@H](O[C@H]6[C@H](O)[C@@H](O)[C@@H](O[C@H]7[C@H](O)[C@@H](O)[C@@H](O[C@H]8[C@H](O)[C@@H](O)[C@@H](O[C@H]9[C@H](O)[C@@H](O)[C@@H](O[C@H]%10[C@H](O)[C@@H](O)[C@@H](O[C@@H]([C@@H]2O)[C@@H](CO)O3)O[C@@H]%10CO)O[C@@H]9CO)O[C@@H]8CO)O[C@@H]7CO)O[C@@H]6CO)O[C@@H]5CO)O[C@@H]4CO)cc1.[Na+] [Example 5, Mono-2-O-(4-carboxybenzyl)-γ-cyclodextrin sodium salt] | 96% | (2.6) μmol · kg^−1 | 0.25 µmol/kg | 
O=C([O-])CSCCCO[C@H]1[C@H]2O[C@H]3[C@H](O)[C@@H](OCCCSCC(=O)[O-])[C@@H](O[C@H]4[C@H](O)[C@@H](OCCCSCC(=O)[O-])[C@@H](O[C@H]5[C@H](O)[C@@H](OCCCSCC(=O)[O-])[C@@H](O[C@H]6[C@H](O)[C@@H](OCCCSCC(=O)[O-])[C@@H](O[C@H]7[C@H](O)[C@@H](OCCCSCC(=O)[O-])[C@@H](O[C@H]8[C@H](O)[C@@H](OCCCSCC(=O)[O-])[C@@H](O[C@H]9[C@H](O)[C@@H](OCCCSCC(=O)[O-])[C@@H](O[C@@H]([C@@H]1O)[C@@H](CO)O2)O[C@@H]9CO)O[C@@H]8CO)O[C@@H]7CO)O[C@@H]6CO)O[C@@H]5CO)O[C@@H]4CO)O[C@@H]3CO.[Na+].[Na+].[Na+].[Na+].[Na+].[Na+].[Na+].[Na+] [Example 7, Octakis per-2-O-(5-carboxy-4-thia-pentyl)-γ-cyclodextrin, Na salt] | 91% | (10) μmol · kg^−1 | 1.12 µmol/kg | 
OC[C@H]1O[C@@H]2O[C@H]3[C@H](O)[C@@H](O)[C@@H](O[C@H]4[C@H](O)[C@@H](O)[C@@H](O[C@H]5[C@H](O)[C@@H](O)[C@@H](O[C@H]6[C@H](O)[C@@H](O)[C@@H](O[C@H]7[C@H](O)[C@@H](O)[C@@H](O[C@H]8[C@H](O)[C@@H](O)[C@@H](O[C@H]9[C@H](O)[C@@H](O)[C@@H](O[C@H]1[C@H](O)[C@H]2O)O[C@@H]9CO)O[C@@H]8CO)O[C@@H]7CO)O[C@@H]6CO)O[C@@H]5CO)O[C@@H]4CO)O[C@@H]3CO [γ-cyclodextrin] |  |  |  | ED50, dose producing 50% reversal of steady-state neuromuscular block ([2]; parent cyclodextrins for comparison): 4 µmol/kg; % max reversal ([2]; parent cyclodextrins): 104%; dose at maximum reversal ([2]; parent cyclodextrins): (47) μmol · kg^−1
O=C([O-])c1ccccc1CO[C@H]1[C@H]2O[C@H]3[C@H](O)[C@@H](OCc4ccccc4C(=O)[O-])[C@@H](O[C@H]4[C@H](O)[C@@H](OCc5ccccc5C(=O)[O-])[C@@H](O[C@H]5[C@H](O)[C@@H](OCc6ccccc6C(=O)[O-])[C@@H](O[C@H]6[C@H](O)[C@@H](OCc7ccccc7C(=O)[O-])[C@@H](O[C@H]7[C@H](O)[C@@H](OCc8ccccc8C(=O)[O-])[C@@H](O[C@H]8[C@H](O)[C@@H](OCc9ccccc9C(=O)[O-])[C@@H](O[C@H]9[C@H](O)[C@@H](OCc%10ccccc%10C(=O)[O-])[C@@H](O[C@@H]([C@@H]1O)[C@@H](CO)O2)O[C@@H]9CO)O[C@@H]8CO)O[C@@H]7CO)O[C@@H]6CO)O[C@@H]5CO)O[C@@H]4CO)O[C@@H]3CO.[Na+].[Na+].[Na+].[Na+].[Na+].[Na+].[Na+].[Na+] [Example 4, Octakis per-2-O-(2-carboxybenzyl)-γ-cyclodextrin, Na salt] | 84% | (15) μmol · kg^−1 | 3.4 µmol/kg | 
OCCOCCSCCCO[C@H]1[C@H]2O[C@H]3[C@H](O)[C@@H](OCCCSCCOCCO)[C@@H](O[C@H]4[C@H](O)[C@@H](OCCCSCCOCCO)[C@@H](O[C@H]5[C@H](O)[C@@H](OCCCSCCOCCO)[C@@H](O[C@H]6[C@H](O)[C@@H](OCCCSCCOCCO)[C@@H](O[C@H]7[C@H](O)[C@@H](OCCCSCCOCCO)[C@@H](O[C@H]8[C@H](O)[C@@H](OCCCSCCOCCO)[C@@H](O[C@@H]([C@@H]1O)[C@@H](CO)O2)O[C@@H]8CO)O[C@@H]7CO)O[C@@H]6CO)O[C@@H]5CO)O[C@@H]4CO)O[C@@H]3CO [Example 10, Heptakis per-2-O-(9-hydroxy-7-oxa-4-thia-nonyl)-β-cyclodextrin] | 72% | (12) μmol · kg^−1 | 5.6 µmol/kg | 
O=C([O-])CCSCCCO[C@H]1[C@H]2O[C@H]3[C@H](O)[C@@H](OCCCSCCC(=O)[O-])[C@@H](O[C@H]4[C@H](O)[C@@H](OCCCSCCC(=O)[O-])[C@@H](O[C@H]5[C@H](O)[C@@H](OCCCSCCC(=O)[O-])[C@@H](O[C@H]6[C@H](O)[C@@H](OCCCSCCC(=O)[O-])[C@@H](O[C@H]7[C@H](O)[C@@H](OCCCSCCC(=O)[O-])[C@@H](O[C@H]8[C@H](O)[C@@H](OCCCSCCC(=O)[O-])[C@@H](O[C@H]9[C@H](O)[C@@H](OCCCSCCC(=O)[O-])[C@@H](O[C@@H]([C@@H]1O)[C@@H](CO)O2)O[C@@H]9CO)O[C@@H]8CO)O[C@@H]7CO)O[C@@H]6CO)O[C@@H]5CO)O[C@@H]4CO)O[C@@H]3CO.[Na+].[Na+].[Na+].[Na+].[Na+].[Na+].[Na+].[Na+] [Example 6, Octakis per-2-O-(6-carboxy-4-thia-hexyl)-γ-cyclodextrin, Na salt] |  |  |  | % max reversal ([1]; guinea pig, in vivo): 86%; concentration at maximum reversal ([1]; guinea pig, in vivo): (16) μmol · kg^−1; ED50, dose producing 50% reversal of steady-state neuromuscular block ([1]; guinea pig, in vivo, iv): 3.4 µmol/kg
OCC(O)CSCCCO[C@H]1[C@H]2O[C@H]3[C@H](O)[C@@H](OCCCSCC(O)CO)[C@@H](O[C@H]4[C@H](O)[C@@H](OCCCSCC(O)CO)[C@@H](O[C@H]5[C@H](O)[C@@H](OCCCSCC(O)CO)[C@@H](O[C@H]6[C@H](O)[C@@H](OCCCSCC(O)CO)[C@@H](O[C@H]7[C@H](O)[C@@H](OCCCSCC(O)CO)[C@@H](O[C@H]8[C@H](O)[C@@H](OCCCSCC(O)CO)[C@@H](O[C@@H]([C@@H]1O)[C@@H](CO)O2)O[C@@H]8CO)O[C@@H]7CO)O[C@@H]6CO)O[C@@H]5CO)O[C@@H]4CO)O[C@@H]3CO (stereo partly drawn) [Example 9, Heptakis per-2-O-(6,7-dihydroxy-4-thia-heptyl)-β-cyclodextrin] | 93% | (6.4) μmol · kg^−1 | 1.10 µmol/kg | 
O=S(=O)([O-])CCSCCCO[C@H]1[C@H]2O[C@H]3[C@H](O)[C@@H](OCCCSCCS(=O)(=O)[O-])[C@@H](O[C@H]4[C@H](O)[C@@H](OCCCSCCS(=O)(=O)[O-])[C@@H](O[C@H]5[C@H](O)[C@@H](OCCCSCCS(=O)(=O)[O-])[C@@H](O[C@H]6[C@H](O)[C@@H](OCCCSCCS(=O)(=O)[O-])[C@@H](O[C@H]7[C@H](O)[C@@H](OCCCSCCS(=O)(=O)[O-])[C@@H](O[C@H]8[C@H](O)[C@@H](OCCCSCCS(=O)(=O)[O-])[C@@H](O[C@H]9[C@H](O)[C@@H](OCCCSCCS(=O)(=O)[O-])[C@@H](O[C@@H]([C@@H]1O)[C@@H](CO)O2)O[C@@H]9CO)O[C@@H]8CO)O[C@@H]7CO)O[C@@H]6CO)O[C@@H]5CO)O[C@@H]4CO)O[C@@H]3CO.[Na+].[Na+].[Na+].[Na+].[Na+].[Na+].[Na+].[Na+] [Example 8, Octakis per-2-O-(6-sulfo-4-thia-hexyl)-γ-cyclodextrin, Na salt] | 85% | (4.5) μmol · kg^−1 | 1.4 µmol/kg | 
O=C([O-])c1ccc(CO[C@H]2[C@H]3O[C@H]4[C@H](O)[C@@H](OCc5ccc(C(=O)[O-])cc5)[C@@H](O[C@H]5[C@H](O)[C@@H](OCc6ccc(C(=O)[O-])cc6)[C@@H](O[C@H]6[C@H](O)[C@@H](OCc7ccc(C(=O)[O-])cc7)[C@@H](O[C@H]7[C@H](O)[C@@H](OCc8ccc(C(=O)[O-])cc8)[C@@H](O[C@H]8[C@H](O)[C@@H](OCc9ccc(C(=O)[O-])cc9)[C@@H](O[C@H]9[C@H](O)[C@@H](OCc%10ccc(C(=O)[O-])cc%10)[C@@H](O[C@H]%10[C@H](O)[C@@H](OCc%11ccc(C(=O)[O-])cc%11)[C@@H](O[C@@H]([C@@H]2O)[C@@H](CO)O3)O[C@@H]%10CO)O[C@@H]9CO)O[C@@H]8CO)O[C@@H]7CO)O[C@@H]6CO)O[C@@H]5CO)O[C@@H]4CO)cc1.[Na+].[Na+].[Na+].[Na+].[Na+].[Na+].[Na+].[Na+] [Example 3, Octakis per-2-O-(4-carboxybenzyl)-γ-cyclodextrin, Na salt] | 97% | (0.8) μmol · kg^−1 | 0.20 µmol/kg | 
Octakis per-2-O-(3-carboxybenzyl)-γ-cyclodextrin, Na salt [Example 2] | 104% | (4.8) μmol · kg^−1 | 0.38 µmol/kg | 
